We go through one molecule from publication PMC6445123 (Scientific Reports, 2019).

Changes are numbered by the printed parent chain.

Experiment [1] deals with T1, Casp6 (Homo sapiens, UniProt P55212, INS179NQTEKLDTNITEVD).
T1 construct: generating mainly large subunit with a linker (LS-L), small subunit (SS), and a minor amount of large subunit (LS); His (C); made in house; host or cells: E. coli BL21(DE3)pLysS
T1 sequence (P55212 24-193 limits assumed): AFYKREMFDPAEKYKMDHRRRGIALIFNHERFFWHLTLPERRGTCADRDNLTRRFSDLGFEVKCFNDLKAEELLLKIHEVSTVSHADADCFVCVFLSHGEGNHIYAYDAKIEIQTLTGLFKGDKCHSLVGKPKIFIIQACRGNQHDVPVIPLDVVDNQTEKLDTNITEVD
T1 sequence (P55212 194-293 limits assumed): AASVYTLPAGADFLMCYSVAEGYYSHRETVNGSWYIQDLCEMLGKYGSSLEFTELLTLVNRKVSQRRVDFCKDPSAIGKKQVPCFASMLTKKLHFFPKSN
The experiment can be described thus: Determination of inhibition mechanism and Ki (Michaelis-Menten, Lineweaver-Burk plots). The class given is biochemical. How it is done: The inhibition of Casp6 activity with S10G and C13 was reversible (Fig. S5). To determine mode of inhibition, kinetic analyses were conducted on Casp6 using S10G and C13 (Fig. 4a). […] (Fig. 4b).
Compounds, S10G (2.5 µM, 4.2 µM, 10 µM), and C13 (5 µM, 14 µM, 50 µM), were added to 20 nM active site titrated Casp6 and enzyme activity was measured with eight different Ac-VEID-AFC substrate concentrations (5.0 μM–200 μM) using fluorescence-based Casp6 activity assay as above. The apparent KM and Vmax values were determined through nonlinear regression analysis of Michaelis-Menten plots (v vs. [S]) using GraphPad Prism 5. The inhibition mode was determined from the pattern of converging Lineweaver-Burk plots (1/v vs. 1/[S])[54]. The dissociation constant (Ki) for Casp6-inhibitor complex was determined from the x-axis intercept (which is equal to −Ki) in the plot of Lineweaver-Burk slopes vs. inhibitor concentration. Alternatively, inhibition model and Ki were determined by global fit of kinetic data to the competitive, noncompetitive, noncompetitive (mixed) or uncompetitive inhibition models using respective equations in GraphPad Prism 5.

In experiment [2] the target is T2, Casp6-K284A (Homo sapiens, UniProt P55212, K284A).
T2 construct: it only partially self-cleaved at the TEVD193 site generating ΔCasp6, LS-L and SS fragments; His (C); made in house; host or cells: E. coli BL21(DE3)pLysS
T2 sequence (P55212 24-193): T1 sequence (P55212 24-193 limits assumed)
T2 sequence (P55212 194-293 K284A): T1 sequence (P55212 194-293 limits assumed) with K91A
Kind of experiment: C13 dose-response, fluorescence-based activity assay on Casp6-K284A. The class given is biochemical. The following applies: Casp6-K284A; read-out: IC50 of C13 for Casp6-K284A (Fig. 4f). From the text: (§1) Figure 4 Compounds S10G and C13 inhibit Casp6 through a noncompetitive mode of inhibition. (a) Michaelis-Menten kinetic plots of Casp6 enzymatic activity in presence of 1% DMSO or increasing doses S10G (top) and C13 (bottom). Data points represent mean ± SD of three independent experiments. (b) Lineweaver-Burk plots of Casp6 inhibition with S10G (top) and C13 (bottom). Red circle indicates the point where lines converge. (c) The relationship between the slopes of lines in Lineweaver-Burk plot analyses in panel (b) and inhibitor concentration. (d) Plots of IC50 values for S10G (top) and C13 (bottom) with varying concentrations of Ac-VEID-AFC substrate. Data points represent mean ± SD from three independent experiments for each substrate concentration. (e) Binding model of C13 into CASP6 putative allosteric site, derived from molecular docking. Left: C13 (green sticks) occupies the putative allosteric site (white surface and lines; Ala-mutated residues L200 and K284 shown as purple sticks). […] Data points on the graph represent the mean ± SD, and calculated Ki values represent mean ± standard error (SE) from three independent experiments. […]

The subject of experiment [3] is Casp6-K284A. Described as above. The experiment is classed as biochemical, human.
Description: as §1

In the case of `COC(=O)c1cc(CNC(=O)C2Cc3ccccc3O2)cc(NC(=O)c2ccco2)c1` (stereo not shown) [Compound C13], the mode of inhibition entry in experiment [1] (Lineweaver-Burk plot pattern) is “noncompetitive inhibition”. Further, the Ki (in general, the dissociation constant of the complex between target and ligand, obtained from inhibition or displacement) in experiment [1] (from plot of Lineweaver-Burk slopes vs inhibitor concentration, Casp6, Ac-VEID-AFC, read-out: Ki (dissociation constant)) was determined as 5.3 µM. The IC50 (in general, the concentration that inhibits the measured activity by half) in experiment [2] stood at 46.7 ± 18.5 µM. The “fold higher IC50 for Casp6-K284A than Casp6-WT” value in experiment [3] was ~ 2.7 fold.
